Measurements taken from ChEMBL document CHEMBL5344477, “Discovery of benzoheterocyclic-substituted amide derivatives as apoptosis signal-regulating kinase 1 (ASK1) inhibitors” (RSC Med Chem, 2024).

How the values were obtained:
[1] = Metabolic stability in human liver microsomes assessed as half life at 1 uM measured upto 90 mins by LC-MS/MS analysis; type: ADME, Microsome
[2] = Metabolic stability in human liver microsomes assessed as clearance at 1 uM measured upto 90 mins by LC-MS/MS analysis; type: ADME, Microsome; conditions: read-out: CLH
[3] = Metabolic stability in rat liver microsomes assessed as half life at 1 uM measured upto 90 mins by LC-MS/MS analysis; type: ADME, Microsome
[4] = Metabolic stability in rat liver microsomes assessed as clearance at 1 uM measured upto 90 mins by LC-MS/MS analysis; type: ADME, Microsome; conditions: read-out: CLH
[5] = Half life in Sprague-Dawley rat at 2.5 mg/kg, po measured upto 24 hrs by LC-MS/MS analysis; type: ADME, organism-based; conditions: in vivo
[6] = Half life in Sprague-Dawley rat at 0.5 mg/kg, iv measured upto 24 hrs by LC-MS/MS analysis; type: ADME, organism-based; conditions: in vivo
[7] = Cmax in Sprague-Dawley rat at 2.5 mg/kg, po measured upto 24 hrs by LC-MS/MS analysis; type: ADME, organism-based; design: dose 2.5 mg/kg, time < 24 hrs, route po; conditions: in vivo
[8] = Cmax in Sprague-Dawley rat at 0.5 mg/kg, iv measured upto 24 hrs by LC-MS/MS analysis; type: ADME, organism-based; design: time < 24 hrs, dose 0.5 mg/kg, route iv; conditions: in vivo
[9] = AUClast in Sprague-Dawley rat at 2.5 mg/kg, po measured upto 24 hrs by LC-MS/MS analysis; type: ADME, organism-based; design: dose 2.5 mg/kg, time < 24 hrs, route po; conditions: in vivo
[10] = AUClast in Sprague-Dawley rat at 0.5 mg/kg, iv measured upto 24 hrs by LC-MS/MS analysis; type: ADME, organism-based; design: time < 24 hrs, dose 0.5 mg/kg, route iv; conditions: in vivo
[11] = Volume of distribution at steady state in Sprague-Dawley rat at 0.5 mg/kg, iv measured upto 24 hrs by LC-MS/MS analysis; type: ADME, organism-based; conditions: in vivo, read-out: Vdss
[12] = Apparent […] clearance in Sprague-Dawley rat at 0.5 mg/kg, iv measured upto 24 hrs by LC-MS/MS analysis; type: ADME, organism-based; conditions: in vivo
[13] = Oral bioavailability in Sprague-Dawley rat at 2.5 mg/kg measured upto 24 hrs by LC-MS/MS analysis; type: ADME, organism-based; conditions: in vivo
[14] = Half life in Sprague-Dawley rat at 5 mg/kg, po measured upto 24 hrs by LC-MS/MS analysis; type: ADME, organism-based; conditions: in vivo
[15] = Half life in Sprague-Dawley rat at 1 mg/kg, iv measured upto 24 hrs by LC-MS/MS analysis; type: ADME, organism-based; conditions: in vivo
[16] = Cmax in Sprague-Dawley rat at 5 mg/kg, po measured upto 24 hrs by LC-MS/MS analysis; type: ADME, organism-based; design: dose 5 mg/kg, time < 24 hrs, route po; conditions: in vivo
[17] = Cmax in Sprague-Dawley rat at 1 mg/kg, iv measured upto 24 hrs by LC-MS/MS analysis; type: ADME, organism-based; design: dose 1 mg/kg, time < 24 hrs, route iv; conditions: in vivo
[18] = AUClast in Sprague-Dawley rat at 5 mg/kg, po measured upto 24 hrs by LC-MS/MS analysis; type: ADME, organism-based; design: dose 5 mg/kg, time < 24 hrs, route po; conditions: in vivo
[19] = AUClast in Sprague-Dawley rat at 1 mg/kg, iv measured upto 24 hrs by LC-MS/MS analysis; type: ADME, organism-based; design: dose 1 mg/kg, time < 24 hrs, route iv; conditions: in vivo
[20] = Volume of distribution at steady state in Sprague-Dawley rat at 1 mg/kg, iv measured upto 24 hrs by LC-MS/MS analysis; type: ADME, organism-based; conditions: in vivo, read-out: Vdss
[21] = Apparent […] clearance in Sprague-Dawley rat at 1 mg/kg, iv measured upto 24 hrs by LC-MS/MS analysis; type: ADME, organism-based; conditions: in vivo
[22] = Oral bioavailability in Sprague-Dawley rat at 5 mg/kg measured upto 24 hrs by LC-MS/MS analysis; type: ADME, organism-based; conditions: in vivo

half-life at 1 µM [1] [h]	CLint scaled at 1 µM [2] [mL/min/kg]	half-life at 1 µM [3] [h]	CLint scaled at 1 µM [4] [mL/min/kg]	half-life [5] [h]	half-life [6] [h]	Cmax [7] [ng/mL]	Cmax [8] [ng/mL]	AUC(0-t) at 24 h [9] [ng·h/mL]	AUC(0-t) at 24 h [10] [ng·h/mL]	Vd [11] [L/kg]	CL/F [12] [mL/min/kg]	bioavailability [13] [%]	half-life [14] [h]	half-life [15] [h]	Cmax [16] [ng/mL]	Cmax [17] [ng/mL]	AUC(0-t) at 24 h [18] [ng·h/mL]	AUC(0-t) at 24 h [19] [ng·h/mL]	Vd [20] [L/kg]	SMILES	other results
7.24	4	4.08	10.2	2.07	0.97	832	489	2390	592	1.07	14	83.6	–	–	–	–	–	–	–	O=C1COc2cc(F)c(C(=O)Nc3cccc(-c4nncn4C4CC4)n3)cc2N1	–
5.26	5.5	1.52	27.3	1.3	0.71	417	239	767	218	1.88	38	72.2	–	–	–	–	–	–	–	CC(C)n1cnnc1-c1cccc(NC(=O)c2cc3c(cc2F)OC(C)(C)C(=O)N3C)n1	–
7.54	3.8	4.07	10.2	2	0.72	345	447	1330	469	0.96	17.7	57.4	–	–	–	–	–	–	–	O=C1CCc2cc(F)c(C(=O)Nc3cccc(-c4nncn4C4CC4)n3)cc2N1	–
–	–	–	–	1.39	0.74	554	350	1260	276	1.35	30	95	–	–	–	–	–	–	–	CC(C)n1cnnc1-c1cccc(NC(=O)c2cc3c(cc2F)OC(C)(C)C(=O)N3)n1	–
3.41	8.5	2.96	14	–	–	–	–	–	–	–	–	–	1.51	0.63	28	440	61	216	2.36	CC(CO)n1cnnc1-c1cccc(NC(=O)c2cc3c(cc2F)CCCC(=O)N3C)n1 (configuration not stated)	CL/F [21]: 76.7 mL/min/kg; bioavailability [22]: 5.9%
1.78	16.3	0.187	222	–	–	–	–	–	–	–	–	–	1.1	0.67	794	793	2280	529	1.22	CC(C)n1cnnc1-c1cccc(NC(=O)c2cc3c(cc2F)OCc2cncn2-3)n1	CL/F [21]: 31.3 mL/min/kg; bioavailability [22]: 86.9%
8.8	3.3	6.24	6.6	–	–	–	–	–	–	–	–	–	1.63	1.24	1270	1070	4830	1270	1.07	CC(C)n1cnnc1-c1cccc(NC(=O)c2cc3c(cc2F)CCCC(=O)N3)n1	CL/F [21]: 12.8 mL/min/kg; bioavailability [22]: 77.7%
